Assay results taken from patent publication US11071731B2, “Allosteric modulators of the mu opioid receptor” (Chiromics, LLC, priority 2017, dated 2021).

How the values were obtained:
[1] = target: T1, mu opioid receptor (MOR) (Homo sapiens, UniProt P35372); assay: Hit Hunter cAMP signaling assay (adenylyl cyclase inhibition), PAM mode with EC20 endomorphin-1; format: cell-based; details: for cAMP Max. Resp.: maximal response for adenylyl cyclase inhibition
[2] = target: T1, mu opioid receptor (MOR); assay: PathHunter β-arrestin recruitment assay, PAM mode with EC20 endomorphin-1; format: cell-based; details: for β-arr Max. Resp.: maximal response for β-arrestin recruitment; for β-arrestin Max Response / EC50: β-arrestin recruitment
Summary of the method: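 β-Arrestin recruitment to the receptor was tracked by chemiluminescent β-galactosidase activity from complementing fragments (ED on receptor, EA on β-arrestin). Per-compound outputs were EC50 and percent maximal response.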

[3] = adenylyl cyclase inhibition, activity switching by MOR PAMs
[4] = adenylyl cyclase inhibition, activity switching by MOR PAMs, read-out: cAMP EC50
[5] = adenylyl cyclase inhibition, read-out: cAMP EC50
[6] = activity switching by MOR PAMs, read-out: β-arrestin EC50
[7] = cAMP EC50, adenylyl cyclase inhibition

T1 sequence (P35372 whole entry): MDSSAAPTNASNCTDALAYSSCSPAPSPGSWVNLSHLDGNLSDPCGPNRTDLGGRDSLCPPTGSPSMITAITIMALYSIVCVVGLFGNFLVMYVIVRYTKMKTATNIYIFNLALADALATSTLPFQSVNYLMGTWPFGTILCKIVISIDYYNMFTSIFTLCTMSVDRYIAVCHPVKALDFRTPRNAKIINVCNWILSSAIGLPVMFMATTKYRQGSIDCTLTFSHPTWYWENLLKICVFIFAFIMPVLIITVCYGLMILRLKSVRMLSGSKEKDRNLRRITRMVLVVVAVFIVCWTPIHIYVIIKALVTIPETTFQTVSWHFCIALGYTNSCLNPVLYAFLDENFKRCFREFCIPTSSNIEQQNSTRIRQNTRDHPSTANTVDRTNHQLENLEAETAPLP

| SMILES | cAMP Max Resp. [1, 3] | EC50 [1, 4] [nM] | EC50 [1, 5] [nM] | cAMP Max. Resp. [1] | β-arr Max. Resp. [2] | β-arrestin Max Response ([2]; activity switching by MOR PAMs) | EC50 [2, 6] [nM] | EC50 ([2]; read-out: β-arr. EC50) [nM] | EC50 [1, 7] [nM] |
| --- | --- | --- | --- | --- | --- | --- | --- | --- | --- |
| O=S(=O)(c1ccc(Cl)cc1)N1CCCCC1c1nccc(C(F)(F)F)n1 (racemic) [compound 73] | D (D represents a maximal response of < 40%) | > 2100 | > 2100 | D (D represents a maximal response of < 40%) | F (F represents a maximal response of > 60%) | F (F represents a maximal response of >60%) | > 2100 | > 2100 |  |
| O=S(=O)(c1ccc(Cl)cc1)N1CCCCC1c1ccc(Cl)c(Br)c1 (racemic) [compound 74] |  |  | > 2100 | E (E represents a maximal response of 40-60%) | F (F represents a maximal response of > 60%) |  |  | > 2100 |  |
| O=S(=O)(c1ccc(Cl)cc1)N1CCCCC1c1ccc(F)c(F)c1 (racemic) [compound 75] |  |  | < 700 | E (E represents a maximal response of 40-60%) | F (F represents a maximal response of > 60%) |  |  | 700 to 2100 |  |
| O=S(=O)(c1ccc(Cl)cc1)N1CCCCC1c1ccc(Cl)cc1 (racemic) [compound 76] |  |  | > 2100 | D (D represents a maximal response of < 40%) | F (F represents a maximal response of > 60%) |  |  | > 2100 |  |
| Cc1cc(C2CCCCN2S(=O)(=O)c2ccc(Cl)cc2)ccn1 (racemic) [compound 77] |  |  | > 2100 | D (D represents a maximal response of < 40%) | F (F represents a maximal response of > 60%) |  |  | > 2100 |  |
| O=S(=O)(c1ccc(Cl)cc1)N1CCCCC1c1ccc(F)cc1 (racemic) [compound 78] |  |  | < 700 | E (E represents a maximal response of 40-60%) | F (F represents a maximal response of > 60%) |  |  | 700 to 2100 |  |
| O=S(=O)(c1ccc(Cl)cc1)N1CCCCC1c1cc(C(F)(F)F)ccn1 (racemic) [compound 79] | D (D represents a maximal response of < 40%) | > 2100 | > 2100 | D (D represents a maximal response of < 40%) | F (F represents a maximal response of > 60%) | F (F represents a maximal response of >60%) | > 2100 | > 2100 |  |
| N#Cc1cc(C2CCCCN2S(=O)(=O)c2ccc(Cl)cc2)ccn1 (racemic) [compound 80] |  |  | > 2100 | D (D represents a maximal response of < 40%) | E (E represents a maximal response of 40-60%) |  |  | > 2100 |  |
| COC(=O)c1cc(C2CCCCN2S(=O)(=O)c2ccc(Cl)cc2)ccn1 (racemic) [compound 81] |  |  | > 2100 | D (D represents a maximal response of < 40%) | E (E represents a maximal response of 40-60%) |  |  | > 2100 |  |
| O=S(=O)(c1ccc(Cl)cc1)N1CCCCC1c1cncc(F)c1 (racemic) [compound 82] |  |  | > 2100 | D (D represents a maximal response of < 40%) | D (D represents a maximal response of < 40%) |  |  | > 2100 |  |
| O=S(=O)(c1ccc(Cl)cc1)N1CCCCC1c1cncc(C(F)(F)F)c1 (racemic) [compound 83] | D (D represents a maximal response of < 40%) | > 2100 | > 2100 | D (D represents a maximal response of < 40%) | D (D represents a maximal response of < 40%) | D (D represents a maximal response of < 40%) | > 2100 | > 2100 |  |
| COc1ccc(C2CCCCCN2S(=O)(=O)c2ccc(Cl)cc2)cc1Br (racemic) [compound 84] |  |  | > 2100 | D (D represents a maximal response of < 40%) | E (E represents a maximal response of 40-60%) |  |  | > 2100 |  |
| CC[C@@H]1CCCN(c2nc(Cl)ncc2F)[C@@H]1c1ccc(OC)c(Br)c1 (relative stereo) [compound 250] |  |  |  | D (D represents a maximal response of < 40%) | F (F represents a maximal response of > 60%) |  |  | > 2100 | > 2100 |
| O[C@H]1CC[C@H](c2cc(F)cc(C(F)(F)F)c2)N(c2nc(Cl)ncc2F)C1 (relative stereo) [compound 310] |  |  | 700 to 2100 | F (F represents a maximal response of > 60%) | F (F represents a maximal response of > 60%) |  |  | > 2100 |  |
| COc1ccc(C2CC(C)CN2S(=O)(=O)c2ccc(Cl)cc2)cc1Br (single isomer, unassigned) [Compound 118] |  |  | > 2100 | D (D represents a maximal response of < 40%) | E (E represents a maximal response of 40-60%) |  |  | 700 to 2100 |  |
| COc1ccc(C2CC(C(F)(F)F)CN2S(=O)(=O)c2ccc(Cl)cc2)cc1Br (single isomer, unassigned) [Compound 119] |  |  | > 2100 | D (D represents a maximal response of < 40%) | E (E represents a maximal response of 40-60%) |  |  | > 2100 |  |
| COc1ccc(C2CC(C(F)(F)F)CN2S(=O)(=O)c2ccc(Cl)cc2)cc1Br (single isomer, unassigned) [Compound 120] |  |  | > 2100 | F (F represents a maximal response of > 60%) | F (F represents a maximal response of > 60%) |  |  | > 2100 |  |
| Fc1cc(C2COCCN2c2nc(Cl)ncc2F)cc(C(F)(F)F)c1 (single isomer, unassigned) [Compound 344] |  |  | < 700 | D (D represents a maximal response of < 40%) | D (D represents a maximal response of < 40%) |  |  | < 700 |  |
| Fc1cc(C2COCCN2c2nc(Cl)ncc2F)cc(C(F)(F)F)c1 (single isomer, unassigned) [Compound 347] |  |  | < 700 | D (D represents a maximal response of < 40%) | D (D represents a maximal response of < 40%) |  |  | < 700 |  |
| COc1ccc(C2CCCCN2S(=O)(=O)c2ccc(Cl)cc2)cc1Br (single isomer, unassigned) [compound 5] |  |  |  | D (D represents a maximal response of < 40%) | D (D represents a maximal response of < 40%) |  |  | > 2100 | > 2100 |
| Fc1ccc(C2CCCCN2c2nc(Cl)ncc2F)cc1Cl (single isomer, unassigned) [compound 10] |  |  |  | E (E represents a maximal response of 40-60%) | F (F represents a maximal response of > 60%) |  |  | < 700 | < 700 |
| Fc1ccc(C2CCCCN2c2nc(Cl)ncc2F)cc1Cl (single isomer, unassigned) [compound 11] |  |  |  | E (E represents a maximal response of 40-60%) | F (F represents a maximal response of > 60%) |  |  | < 700 |  |
| O=S(=O)(c1ccc(Cl)cc1)N1CCCCC1c1ccc(F)c(Br)c1 (single isomer, unassigned) [compound 56] |  |  | 700 to 2100 | E (E represents a maximal response of 40-60%) | F (F represents a maximal response of > 60%) |  |  | > 2100 |  |
| O=S(=O)(c1ccc(Cl)cc1)N1CCCCC1c1ccc(Cl)c(C(F)(F)F)c1 (single isomer, unassigned) [compound 69] |  |  | 700 to 2100 | D (D represents a maximal response of < 40%) | F (F represents a maximal response of > 60%) |  |  | > 2100 |  |
| Fc1cnc(Cl)nc1N1CCCCC1c1ccc(Cl)c(Br)c1 (single isomer, unassigned) [compound 125] |  |  |  | F (F represents a maximal response of > 60%) | F (F represents a maximal response of > 60%) |  |  | < 700 | < 700 |
| [2H]C1(c2cccc(C(F)(F)F)c2)C(F)CCCN1c1nc(Cl)ncc1F (single isomer, unassigned) [compound 208] |  |  |  | F (F represents a maximal response of > 60%) | F (F represents a maximal response of > 60%) |  |  | > 2100 |  |
